Converted amounts (≈) assume the structure as drawn.
Experiments:
[1] = tested on: HCV replicon I389luc-ubi-neo/NS3-3'/5.1; test: Anti-HCV replicon assay (luciferase activity) in Huh-5-2 cells; assay type: cell-based, Hepatitis C virus; settings: concentration required to inhibit luciferase activity in the replicon system by 50%
Method in brief: (§1)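 Huh-5-2 cells carrying the luciferase HCV replicon, seeded 24 h, then exposed to serial compound dilutions without G418 for 72 h at 37° C, 5% CO2. Replication read as luciferase luminescence, expressed as percentage of untreated cultures; culture density measured in parallel by MTS.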

[2] = tested on: Huh-5-2 cells; test: Proliferation of exponentially growing Huh-5-2 cells (MTS method); settings: concentration required to inhibit the proliferation of exponentially growing Huh-5-2 cells by 50%
Method in brief: as §1

[3] = as above; settings: human, CC50, concentration required to inhibit the proliferation of exponentially growing Huh-5-2 cells by 50%
Method in brief: as §1

[4] = tested on: HCV replicon (RNA) synthesis; test: Quantitative analysis of HCV replicon RNA by Taqman real-time RT-PCR in Huh-5-2 cells; assay type: cell-based, Hepatitis C virus
Protocol: Replicon cells were plated at 7.5×10^3 cells per well in a 96-well plate plates at 37° C. and 5% CO2 in Dulbecco's modified essential medium containing 10% fetal calf serum, 1% nonessential amino acids and 1 mg/ml Geneticin. After allowing 24 h for cell attachment, different dilutions of compound were added to the cultures. Plates were incubated for 5 days, at which time RNA was extracted using the Qiamp Rneazyi Kit (Qiagen, Hilden, Germany). […] After initial activation of uracil-N-glycosylase at 50° C. for 2 minutes, RT was performed at 60° C. for 30 minutes, followed by inactivation of uracil-N-glycosylase at 95° C. for 5 minutes. Subsequent PCR amplification consisted of 40 cycles of denaturation at 94° C. for 20 seconds and annealing and extension at 62° C. for 1 minute in an ABI 7700 sequence detector. For each PCR run, negative template and positive template samples were used. The cycle threshold value (Ct-value) is defined as the number of PCR cycles for which the signal exceeds the baseline, which defines a positive value. The sample was considered to be positive if the Ct-value was <50. Results are expressed as genomic equivalents (GE).

[5] = Hepatitis C virus, Huh-5-2, 72 h
[6] = Hepatitis C virus, Huh-5-2, concentration required to reduce the synthesis of HCV replicon by 50% as determined by real-time quantitative RT-PCR

For `COCCN1C(=O)c2c(Cl)cccc2C(C(=O)Nc2cccc(OC)c2)C1c1cccs1` (centres unmarked) [C24, 8-Chloro-2-(2-methoxyethyl)-N-(3-methoxyphenyl)-1-oxo-3-(thiophen-2-yl)-1,2,3,4-tetrahydroisoquinoline-4-carboxamide], the IC50 [1, 5] was 35.7 µg/mL (≈ 75.9 µM) and the CC50 ([2]; Table 2) was 125 µg/mL (≈ 265 µM).

`COCCN1C(=O)c2ccccc2C(CNc2ccc(Cl)cc2)C1c1cccs1` (centres unmarked) [C78, 4-((4-chlorophenylamino)methyl)-2-(2-methoxyethyl)-3-(thiophen-2-yl)-3,4-dihydroisoquinolin-1(2H)-one] showed an IC50 [1, 5] of 50.5 µg/mL (≈ 118 µM) and a CC50 ([2]; Table 2) of 125 µg/mL (≈ 293 µM).

In the case of `COCCN1C(=O)c2ccccc2C(C(=O)Nc2cccc(OC)c2)C1C#C[Si](C)(C)C` (centres unmarked) [C70, 2-(2-methoxyethyl)-N-(3-methoxyphenyl)-1-oxo-3-((trimethylsilyl)ethynyl)-1,2,3,4-tetrahydroisoquinoline-4-carboxamide], the IC50 [1, 5] is reported as 3.33 µg/mL (≈ 7.39 µM) and the CC50 ([2]; Table 2) is reported as 125 µg/mL (≈ 277 µM).

In the case of `COCCN1C(=O)c2ccccc2C(C(=O)NCc2ccc(OC)cc2)C1c1cccs1` (centres unmarked) [C79, N-(4-methoxybenzyl)-2-(2-methoxyethyl)-1-oxo-3-(thiophen-2-yl)-1,2,3,4-tetrahydroisoquinoline-4-carboxamide], the IC50 [1, 5] is reported as 68.2 µg/mL (≈ 151 µM) and the CC50 ([2]; Table 2) is reported as 125 µg/mL (≈ 277 µM).

For `COCCN1C(=O)c2cc(C)ccc2C(C(=O)Nc2cccc(OC)c2)C1c1cccs1` (centres unmarked) [C41, 2-(2-Methoxyethyl)-N-(3-methoxyphenyl)-7-methyl-1-oxo-3-(thiophen-2-yl)-1,2,3,4-tetrahydroisoquinoline-4-carboxamide], the IC50 [1, 5] was 0.5 µg/mL (≈ 1.11 µM), the CC50 at 72 h ([3]; Table 2) was 107 µg/mL (≈ 238 µM) and the CC50 at 72 h ([3]; Table 4) was greater than 50 µg/mL. The EC50 [4, 6] was 0.28 µg/mL (≈ 0.621 µM).

`C#CC1C(C(=O)Nc2ccc(-n3cccc3)cc2)c2ccccc2C(=O)N1CCOC` (centres unmarked) [C152, N-(4-(1H-pyrrol-1-yl)phenyl)-3-ethynyl-2-(2-methoxyethyl)-1-oxo-1,2,3,4-tetrahydroisoquinoline-4-carboxamide] gave an IC50 [1, 5] of 0.2 µg/mL (≈ 0.484 µM), a CC50 at 72 h ([3]; Table 2) of 30 µg/mL (≈ 72.6 µM) and a CC50 at 72 h ([3]; Table 4) greater than 30 µg/mL. It also gave an EC50 [4, 6] of 0.2 µg/mL (≈ 0.484 µM).

`CCOC(=O)c1cccc(NC(=O)C2c3ccccc3C(=O)N(CCOC)C2c2cccs2)c1` (centres unmarked) [C46, Ethyl 3-(2-(2-methoxyethyl)-1-oxo-3-(thiophen-2-yl)-1,2,3,4-tetrahydroisoquinoline-4-carboxamido)benzoate] gave an IC50 [1, 5] of 1.4 µg/mL (≈ 2.93 µM), a CC50 at 72 h ([3]; Table 2) of 86.3 µg/mL (≈ 180 µM) and a CC50 at 72 h ([3]; Table 4) greater than 50 µg/mL. The EC50 [4, 6] was 1.19 µg/mL (≈ 2.49 µM).

In the case of `COCCN1C(=O)c2cc(F)ccc2C(C(=O)Nc2cccc(OC)c2)C1c1cccs1` (centres unmarked) [C52, 7-Fluoro-2-(2-methoxyethyl)-N-(3-methoxyphenyl)-1-oxo-3-(thiophen-2-yl)-1,2,3,4-tetrahydroisoquinoline-4-carboxamide], the IC50 [1, 5] is reported as 0.4 µg/mL (≈ 0.88 µM), the CC50 at 72 h ([3]; Table 2) is reported as 81.2 µg/mL (≈ 179 µM) and the CC50 at 72 h ([3]; Table 4) is reported as greater than 50 µg/mL. The EC50 [4, 6] was less than 0.4 µg/mL.

Work on `COCCN1C(=O)c2ccccc2C(C(=O)Nc2cccc(OC)c2)C1CC(F)(F)F` (centres unmarked) [C71, 2-(2-methoxyethyl)-N-(3-methoxyphenyl)-1-oxo-3-(2,2,2-trifluoroethyl)-1,2,3,4-tetrahydroisoquinoline-4-carboxamide] yielded an IC50 [1, 5] of 12.6 µg/mL (≈ 28.8 µM) and a CC50 ([2]; Table 2) of 125 µg/mL (≈ 286 µM).

In the case of `COCCN1C(=O)c2ccccc2C(C(=O)Nc2ccc(-n3cccc3)cc2)C1c1cccs1` (centres unmarked) [C116, N-(4-(1H-pyrrol-1-yl)phenyl)-2-(2-methoxyethyl)-1-oxo-3-(thiophen-2-yl)-1,2,3,4-tetrahydroisoquinoline-4-carboxamide], the IC50 [1, 5] is reported as 0.04 µg/mL (≈ 0.0848 µM), the CC50 at 72 h ([3]; Table 2) is reported as 72.4 µg/mL (≈ 154 µM) and the CC50 at 72 h ([3]; Table 4) is reported as greater than 50 µg/mL. For the same molecule, the EC50 [4, 6] was 0.062 µg/mL (≈ 0.131 µM).

In the case of `COc1cccc(NC(=O)C2c3ccccc3C(=O)N(CC3CCCO3)C2c2cccs2)c1` (centres unmarked) [C31, N-(3-methoxyphenyl)-1-oxo-2-((tetrahydrofuran-2-yl)methyl)-3-(thiophen-2-yl)-1,2,3,4-tetrahydroisoquinoline-4-carboxamide], the IC50 [1, 5] is reported as 1.1 µg/mL (≈ 2.38 µM), the CC50 at 72 h ([3]; Table 2) is reported as 66.5 µg/mL (≈ 144 µM) and the CC50 at 72 h ([3]; Table 4) is reported as greater than 50 µg/mL. The EC50 [4, 6] was 18 µg/mL (≈ 38.9 µM).

For `COCCN1C(=O)c2ccccc2C(C(=O)Nc2cccc(OC)c2)C1c1cccs1` (racemic) [C2, 2-(2-methoxyethyl)-N-(3-methoxyphenyl)-1-oxo-3-(thiophen-2-yl)-1,2,3,4-tetrahydroisoquinoline-4-carboxamide], the IC50 ([1]; 72 hours, listed as C2 (trans)) was 1.3 µg/mL (≈ 2.98 µM), the CC50 ([2]; Table 2, listed as C2 (trans)) was 41.2 µg/mL (≈ 94.4 µM) and the CC50 ([2]; Table 4) was greater than 50 µg/mL. For the same molecule, the EC50 ([4]; concentration required to reduce the synthesis of HCV replicon by 50% as determined by real-time quantitative RT-PCR) was 17.000 µg/mL (≈ 38.9 µM).

Molecule `COCCN1C(=O)c2ccccc2C(C(=O)Nc2cccc(OC)c2)C1Cc1ccccc1` (centres unmarked) [C68, 3-Benzyl-2-(2-methoxyethyl)-N-(3-methoxyphenyl)-1-oxo-1,2,3,4-tetrahydroisoquinoline-4-carboxamide] has an IC50 [1, 5] of 70.6 µg/mL (≈ 159 µM) and a CC50 ([2]; Table 2) of 125 µg/mL (≈ 281 µM).

Work on `COCCN1C(=O)c2ccccc2C(C(=O)Nc2cccc(OC)c2)C1c1cccs1` (racemic) [C1, 2-(2-methoxyethyl)-N-(3-methoxyphenyl)-1-oxo-3-(thiophen-2-yl)-1,2,3,4-tetrahydroisoquinoline-4-carboxamide] yielded an IC50 ([1]; 72 hours, listed as C1 (cis)) of 0.3 µg/mL (≈ 0.687 µM), a CC50 ([2]; Table 2, listed as C1 (cis)) of 83.7 µg/mL (≈ 192 µM) and a CC50 at 72 h ([3]; Table 4) greater than 50 µg/mL. For the same molecule, the EC50 [4, 6] was 24 µg/mL (≈ 55 µM).
